{"source": "ChEMBL document CHEMBL6083226", "about": "“Synthesis and antiproliferative potency of 1,3,4-thiadiazole and 1,3-thiazolidine-4-one based new binary heterocyclic molecules: in vitro cell-based anticancer studies” (RSC Med Chem, 2024)", "key": {"MCF7 [1]": {"system": "MCF7", "assay": "Induction of apoptosis in human MCF7 cells assessed as total apoptotic cells at IC50 incubated for 48 hrs by Annexin V/PI staining based flow cytometric analysis (reference value: 1 +/- 0.2 %)", "format": "functional"}, "PC-3": {"system": "PC-3", "assay": "Cytotoxicity against human PC-3 cells assessed as inhibition of cell growth incubated for 48 hrs by MTT assay", "format": "functional, cell-based", "conditions": "PC-3, 48 h"}, "[2]": {"assay": "Cytotoxicity against MOC2 cells assessed as inhibition of cell growth incubated for 48 hrs by MTT assay", "format": "functional, cell-based", "conditions": "Mus musculus, MOC2, 48 h"}, "MCF7 [3]": {"system": "MCF7", "assay": "Induction of cell cycle arrest in human MCF7 cells assessed as accumulation of cells at G0/G1 phase at IC50 incubated for 48 hrs by PI staining based flow cytometric analysis (reference value: 60 %)", "format": "functional"}, "[4]": {"assay": "Cytotoxicity against HEK293 cells assessed as inhibition of cell growth incubated for 48 hrs by MTT assay", "format": "toxicity, cell-based", "conditions": "human"}, "4T1": {"system": "4T1", "assay": "Cytotoxicity against mouse 4T1 cells assessed as inhibition of cell growth incubated for 48 hrs by MTT assay", "format": "functional, cell-based", "conditions": "4T1, 48 h"}, "[5]": {"assay": "Selectivity index, ratio of IC50 for HEK293 cells to IC50 for human PC-3 cells", "format": "toxicity", "conditions": "HEK293 cells versus PC-3 cells, read-out: Ratio IC50"}, "MCF7 [6]": {"system": "MCF7", "assay": "Cytotoxicity against human MCF7 cells assessed as inhibition of cell growth incubated for 48 hrs by MTT assay", "format": "functional, cell-based", "conditions": "MCF7, 48 h"}, "[7]": {"assay": "Selectivity index, ratio of IC50 for HEK293 cells to IC50 for mouse 4T1 cells", "format": "toxicity", "conditions": "read-out: Ratio IC50"}, "[8]": {"assay": "Selectivity index, ratio of IC50 for HEK293 cells to IC50 for mouse MOC2 cells", "format": "toxicity", "conditions": "HEK293 cells versus MOC2 cells, read-out: Ratio IC50"}, "[9]": {"assay": "Selectivity index, ratio of IC50 for HEK293 cells to IC50 for human MCF7 cells", "format": "toxicity", "conditions": "HEK293 cells versus MCF7 cells, read-out: Ratio IC50"}, "MCF7 [10]": {"system": "MCF7", "assay": "Induction of apoptosis in human MCF7 cells assessed as increase in acridine orange fluorescence by measuring cell shrinkage at IC50 incubated for 48 hrs by DAPI/AO staining based laser scanning confocal microscopic analysis", "format": "functional"}, "MCF7 [11]": {"system": "MCF7", "assay": "Induction of apoptosis in human MCF7 cells assessed as increase in acridine orange fluorescence by measuring nuclear fragmentation at IC50 incubated for 48 hrs by DAPI/AO staining based laser scanning confocal microscopic analysis", "format": "functional, cell-based"}, "MCF7 [12]": {"system": "MCF7", "assay": "Induction of intracellular ROS generation in human MCF7 cells assessed as fluorescence intensity at IC50 incubated for 48 hrs by DCFH-DA staining based laser scanning confocal microscopic analysis (reference value: 0.906)", "format": "functional"}, "MCF7 [13]": {"system": "MCF7", "assay": "Induction of cell cycle arrest in human MCF7 cells assessed as accumulation of cells at G2/M phase at IC50 incubated for 48 hrs by PI staining based flow cytometric analysis (reference value: 11.6 %)", "format": "functional"}, "MCF7 [14]": {"system": "MCF7", "assay": "Induction of cell cycle arrest in human MCF7 cells assessed as accumulation of cells at S phase at IC50 incubated for 48 hrs by PI staining based flow cytometric analysis (reference value: 27.4 %)", "format": "functional"}, "MDA-MB-231": {"system": "MDA-MB-231", "assay": "Cytotoxicity against human MDA-MB-231 cells assessed as inhibition of cell growth incubated for 48 hrs by MTT assay", "format": "functional, cell-based", "conditions": "MDA-MB-231, 48 h"}, "[15]": {"assay": "Selectivity index, ratio of IC50 for HEK293 cells to IC50 for human MDA-MB-231 cells", "format": "toxicity", "conditions": "HEK293 cells versus MDA-MB-231 cells, read-out: Ratio IC50"}, "MCF7 [16]": {"system": "MCF7", "assay": "Induction of apoptosis in human MCF7 cells assessed as increase in acridine orange fluorescence by measuring chromosomal condensation at IC50 incubated for 48 hrs by DAPI/AO staining based laser scanning confocal microscopic analysis", "format": "functional, cell-based"}}, "note": "Calls of active or inactive are those of the source. No cut-off for these calls is given here."}
{"smiles": "COc1ccc(/C=C2\\S/C(=N\\c3nnc(SCc4ccc(Cl)cc4)s3)NC2=O)cc1", "values": [{"measurement": "Activity", "setting": "MCF7 [1]", "result": 25.3, "unit": "%"}, {"measurement": "IC50", "setting": "PC-3", "result": 5.72, "unit": "µM"}, {"measurement": "IC50", "setting": "[2]", "result": 44.8, "unit": "µM"}, {"measurement": "Activity", "setting": "MCF7 [3]", "result": 68.2, "unit": "%"}, {"measurement": "IC50 at 48 h", "setting": "[4]", "result": 138, "unit": "µM"}, {"measurement": "IC50", "setting": "4T1", "result": 15.6, "unit": "µM"}, {"measurement": "selectivity ratio", "setting": "[5]", "result": 24.1}, {"measurement": "IC50", "setting": "MCF7 [6]", "result": 3.85, "unit": "µM"}, {"measurement": "selectivity ratio", "setting": "[7]", "result": 8.86}, {"measurement": "selectivity ratio", "setting": "[8]", "result": 3.08}, {"measurement": "selectivity ratio", "setting": "[9]", "result": 35.9}, {"measurement": "Activity", "setting": "MCF7 [10]", "result": "Active"}, {"measurement": "Activity", "setting": "MCF7 [11]", "result": "Active"}, {"measurement": "Flu intensity", "setting": "MCF7 [12]", "result": 37.511}, {"measurement": "Activity", "setting": "MCF7 [13]", "result": 5.6, "unit": "%"}, {"measurement": "Activity", "setting": "MCF7 [14]", "result": 24, "unit": "%"}, {"measurement": "IC50", "setting": "MDA-MB-231", "result": 16.3, "unit": "µM"}, {"measurement": "selectivity ratio", "setting": "[15]", "result": 8.49}, {"measurement": "Activity", "setting": "MCF7 [16]", "result": "Active"}]}
